# Results published in US5360802A, “Benzodiazepine derivatives, compositions containing them and their use in therapy” (priority 1992, dated 1994).
# Like-named read-outs stand apart in the source and are kept apart here.
# Columns and labels:
# [1] = molecular target: T1, CCK receptor (Brain) (Cavia porcellus, UniProt H0VZC5); assay: biochemical; assay type: binding, guinea pig (male Hartley), cortex
# T1 construct: the cortex was removed and homogenized in 25 mL ice-cold 0.32M sucrose; from tissue; host or cells: guinea pig cortex (male Hartley), P2 membrane pellet
# T1 sequence (H0VZC5 1-426): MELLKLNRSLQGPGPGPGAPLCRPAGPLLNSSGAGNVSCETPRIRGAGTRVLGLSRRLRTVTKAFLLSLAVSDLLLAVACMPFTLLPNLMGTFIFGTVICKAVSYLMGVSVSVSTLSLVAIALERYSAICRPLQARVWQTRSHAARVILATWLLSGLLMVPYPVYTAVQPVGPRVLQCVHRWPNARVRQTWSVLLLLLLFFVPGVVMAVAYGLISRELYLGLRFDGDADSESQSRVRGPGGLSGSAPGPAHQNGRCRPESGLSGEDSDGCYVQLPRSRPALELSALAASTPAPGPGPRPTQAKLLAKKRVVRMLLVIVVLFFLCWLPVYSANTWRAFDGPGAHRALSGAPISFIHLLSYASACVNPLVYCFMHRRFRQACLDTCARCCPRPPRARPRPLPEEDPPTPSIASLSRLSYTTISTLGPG
# Experimental: CCK-8 sulphated was radiolabelled and the binding was performed according to the description for the pancreas method with minor modifications.
# Male Hartley guinea pigs (300-500 g) were sacrificed by decapitation and the cortex was removed and homogenized in 25 mL ice-cold 0.32M sucrose. The homogenates were centrifuged at 1000 g for 10 minutes and the resulting supernatant was recentrifuged at 20,000 g for 20 minutes. The P2 pellet was resuspended in binding assay buffer (20 mM HEPES, 5 mM MgCl2, 0.25 mg/ml bacitracin, 1 mM EGTA pH 6.5 at 25° C. ), using a Teflon (trademark) homogenizer (5 strokes at 500 rpm) to give a final concentration of 10 mg original wet weight/1.2 ml buffer. […] All assays were run in duplicate. The reaction mixtures were incubated at 25° C. for 2 hours and then the reaction was terminated by rapid filtration (Brandell 24 well cell harvester) on Whatman GF/C filters with 3×5 ml washes of cold 100 mM NaCl. The radioactivity on the filters was counted with a LKB gamma counter.
# (§1) Drug displacement studies were performed with at least 10 concentrations of compounds of Formula I and the IC50 values were determined by regression analysis IC50 refers to the concentration of the compound required to inhibit 50% of specific binding of ^125 I-CCK-8.
# [2] = molecular target: T2, CCK receptor (Pancreas) (Rattus norvegicus, UniProt P30551); assay: CCK Receptor Binding (Pancreas), displacement of 125I-CCK-8; parameters: species or system rat (male Sprague-Dawley); settings: 125I-CCK-8 50 pM, rat pancreas membranes; for IC50: 25° C., 2 hours
# T2 construct: The whole pancreas was dissected free of fat tissue and was homogenized; from tissue; host or cells: rat whole pancreas (male Sprague-Dawley), membrane homogenate
# T2 sequence (P30551 1-444): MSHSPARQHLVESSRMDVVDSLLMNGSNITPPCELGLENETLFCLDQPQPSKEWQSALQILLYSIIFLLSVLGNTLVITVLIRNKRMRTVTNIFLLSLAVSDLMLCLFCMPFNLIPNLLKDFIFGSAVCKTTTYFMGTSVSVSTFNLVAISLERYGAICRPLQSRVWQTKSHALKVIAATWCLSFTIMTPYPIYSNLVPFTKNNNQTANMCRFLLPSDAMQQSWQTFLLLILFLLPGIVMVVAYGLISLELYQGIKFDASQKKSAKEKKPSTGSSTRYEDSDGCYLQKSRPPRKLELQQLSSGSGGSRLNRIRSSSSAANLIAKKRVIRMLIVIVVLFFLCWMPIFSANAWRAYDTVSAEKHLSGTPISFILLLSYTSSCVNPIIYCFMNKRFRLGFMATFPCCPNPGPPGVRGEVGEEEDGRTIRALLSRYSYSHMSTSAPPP
# Experimental: CCK-8 sulphated was radiolabelled with ^125 I-Bolton Hunter reagent (2000 Ci/mmole). Receptor binding was performed according to Chang and Lotti (Proc. Natl. Acad. Sci. 83, 4923-4926, 1986) with minor modifications.
# Male Sprague-Dawley rats (150-200 g) were sacrificed by decapitation. The whole pancreas was dissected free of fat tissue and was homogenized in 25 volumes of ice-cold 10 mM N-2-hydroxyethyl-piperazine-N'-2-ethane sulphonic acid (HEPES) buffer with 0.1% soya bean trypsin inhibitor (pH 7.4 at 25° C. ) with a Kinematica Polytron. The homogenates were centrifuged at 47,800 g for 10 min. Pellets were resuspended in 10 volumes of binding assay buffer (20mM (HEPES)), 1 mM ethylene glycol-bis-(β-aminoethylether-N,N'-tetraacetic acid) (EGTA), 5 mM MgCl2, 150 mM NaCl, bacitracin 0.25 mg/ml, soya bean trypsin inhibitor 0.1 mg/ml, and bovine serum albumin 2 mg/ml pH 6.5 at 25° C.) using a Teflon (trademark). homogenizer, 15 strokes at 500 rpm. The homogenate was further diluted in binding assay buffer to give a final concentration of 0.5 mg original wet weight/1 ml buffer. […] All assays were run in.duplicate. The reaction mixtures were incubated at 25° C. for 2 hours and the reaction terminated by rapid filtration (Brandell 24 well cell harvester) over Whatman GF/C filters, washing 3×4 mls with ice-cold 100 Mm NaCl. The radioactivity on the filters was counted with a LKB gamma counter.
# as §1
# [3] = molecular target: T3, Gastrin receptor (Cavia porcellus, UniProt H0VZC5); assay: Gastrin Receptor Binding in Guinea Pig Gastric Glands, displacement of 125I-gastrin; parameters: species or system guinea pig (male Hartley); settings: 125I-gastrin 0.1 nM, 25° C., 30 minutes
# T3 construct: from tissue; host or cells: guinea pig gastric mucosal glands (male Hartley), isolated with collagenase
# T3 sequence (H0VZC5 1-426): T1 sequence (H0VZC5 1-426)
# Experimental: Gastrin antagonist activity of compounds of Formula I was determined using the following assay.
# Guinea pig gastric mucosal glands were prepared by the procedure of Chang et. al., Science, 230, 177-179 (1985) with slight modifications. […] The tissues were passed twice through a 5 ml syringe to liberate the gastric glands, and then filtered through Nitex (trademark) #202 gauge nylon mesh. The filtered glands were centrifuged at 272 g for 5 minutes and washed twice by resuspension in 25 ml buffer and centrifugation.
# The washed guinea pig gastric glands prepared as above were resuspended in 25 ml of standard buffer. For binding studies, to 250 μl of gastric glands, 30 μl of buffer (for total binding) or gastrin (3 μM final concentration, for nonspecific binding) or test compound and 20 μl of ^125 I-gastrin (NEN, 2200 Ci/mmole, 0.1 nM final concentration) were added. All assays were run in triplicate. […] The reaction mixtures, after incubation at 25° C. for 30 minutes in a shaking water bath were rapidly filtered (Brandell 24 well cell harvester) over Whatman G/F B filters presoaked in assay buffer and immediately washed further with 3×4 ml of 100 mM ice cold NaCl. The radioactivity on the filters was measured using a LKB gamma counter.
# [4] = 125I-CCK-8 50 pM, guinea pig cortex membranes, 25° C., 2 hours, read-out: IC50, 125I-CCK Brain
Structure (SMILES),IC50 [1] [nM],IC50 [2] [nM],"IC50 [1, 4] [nM]",IC50 [3] [nM],% (inhibition of 125I-CCK binding) Pancreas ([2]; at 3 μM) [%]
"CN1C(=O)C(NC(=O)Nc2cccc([S+](C)[O-])c2)N=C(C2CCCCC2)c2ccccc21 (racemic) [Example 42, N-[3(R,S)-5-Cyclohexyl-2,3-dihydro-1-methyl-2-oxo-1H-1,4-benzodiazepin-3-yl]N'-[3(R,S)-(methylsulphinyl)phenyl]urea]",15,18,–,–,–
"CN1C(=O)C(NC(=O)Nc2cccc(C(=O)NS(=O)(=O)C(C)(C)C)c2)N=C(C2CCCCC2)c2ccccc21 (racemic) [Example 31, N-[3(R,S)-5-Cyclohexyl-2,3-dihydro-1-methyl-2-oxo-1H-1,4-benzodiazepin-3-yl]N'-[3-(1,1-dimethylethylsulphonylaminocarbonyl)phenyl]urea]",–,6.2,0.22,–,–
"CN1C(=O)C(NC(=O)Nc2cccc(S(=O)(=O)Nc3cnccn3)c2)N=C(C2CCCCC2)c2ccccc21 (racemic) [Example 22, N-[3(R,S)-5-Cyclohexyl-2,3-dihydro-1-methyl-2-oxo-1H-1,4-benzodiazepin-3-yl] N'-[3-(2-pyrazinylaminosulphonyl)phenyl]urea]",–,70,6.8,–,–
"CN1C(=O)C(NC(=O)Nc2cccc(C(=O)NS(=O)(=O)C(C)(C)C)c2)N=C(C2CCCC2)c2ccccc21 (racemic) [Example 39, N-[3(R,S)-5-Cyclopentyl-2,3-dihydro-1-methyl-2-oxo-1H-1,4-benzodiazepin-3-yl]N'-[3-(1,1-dimethylethylsulphonylaminocarbonyl)phenylurea]",–,270,0.56,1.18,–
"CC(C)CN1C(=O)C(NC(=O)Nc2cccc(-c3nn[nH]n3)c2)N=C(C2CCCCC2)c2ccccc21 (racemic) [Example 2, N-[3(R,S)-5-Cyclohexyl-2,3-dihydro-1-(2-methylpropyl)-2-oxo-1H-1,4-benzodiazepin-3-yl] N'-[3-tetrazol-5-ylphenyl]urea]",–,–,–,–,27
